Laboratory results as given in patent US11903386B2, “Strigolactone analogs and their usage in plant control” (King Abdullah University of Science and Technology, priority 2016, dated 2024).

Legend:
[1] = system: rice d10 mutant; assay: Rice micro tillering bioassay, d10 mutant; format: in vivo; conditions: 2.5 μM, hydroponic culture; untreated (Mock) 4 tillers per plant
Procedure: (§1) Rice seeds (WT, d3, d10) were surface-sterilized by washing with 70% ethanol for 1 min and then with 2.5% sodium hypochlorite for 15 min. Seeds were then rinsed thoroughly with sterile MilliQ water and incubated in water for 2 days at 30° C. in the dark. Pre-germinated seeds were transferred to filter papers containing ½ strength MS medium in 90 mm petri dishes and incubated at 30° C. under fluorescent white light (130-180 μM m^−2 s^−1) for one week. Seven day-old seedlings were transferred to 50 ml falcon tubes (one seedling per tube) containing modified half-strength Hoagland nutrient solution and grown in greenhouse. Plants were treated with MPs at 2.5 μM-2.5×10-7 μM, using GR24 as positive control. The compounds were applied six times, twice a week. Number of tillers per plant, plant height and fresh biomass were measured at final harvest.
Statistical analyses were carried out using statistical software package R (version 3.2.2). Dose-response curves and Half Maximum Effective Concentrations (EC50) were calculated to determine optimum amount of MPs. Synthetic strigolactone analog GR24 was used as reference to estimate efficacy of selected compounds. EC50 and estimated response were calculated using drc package (https://cran.r390 project.org/web/packages/drc/) with a Four Parameter Logistic Curve (Dose Response Curve) (Ritz and Streibig, 2005).

[2] = molecular target: T1, ShHTL7 (Striga hermonthica, UniProt A0A0M3PNA2); assay: Intrinsic tryptophan fluorescence assay; format: binding; conditions: ShHTL7 10 μM, mean±SE (n=3); read-out: Kd, affinity of ShHTL7
T1 sequence (A0A0M3PNA2 1-271): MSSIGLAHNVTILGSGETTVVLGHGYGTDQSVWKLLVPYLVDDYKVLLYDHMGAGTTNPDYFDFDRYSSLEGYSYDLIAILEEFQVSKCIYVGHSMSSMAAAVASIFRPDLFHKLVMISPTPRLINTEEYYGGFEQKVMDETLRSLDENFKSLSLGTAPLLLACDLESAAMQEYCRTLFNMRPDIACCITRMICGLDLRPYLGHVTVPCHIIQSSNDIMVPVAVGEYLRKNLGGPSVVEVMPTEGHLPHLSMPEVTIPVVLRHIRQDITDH
Source text: (§2) Striga hermonthica ShHTL7 cDNA, GenBank accession KR013127 was kindly provided by Prof. Tadao Asami (The University of Tokyo, Japan). Arabidopsis thaliana D14 (AtD14) cDNA, GenBank accession AY097402 was synthesized and cloned into pUC57 (GenScript). ShHTL7 and OsD14 cDNAs were amplified by RT-PCR using the primers shown in Table 2, digested with BamHI and XhoI, and ligated into BamHI/XhoI digested pGEX-6P-1 expression vector (GE Healthcare). Integrity of plasmids was confirmed by sequencing (KAUST Bioscience Core Lab). The plasmids were then transformed into E. coli BL21 (DE3) cells. The cells were grown in LB broth containing ampicillin ([…]), incubated at 37° C. until OD600 of 0.6 and induced with 0.1 mM isopropyl-β-D-thiogalactopyranoside (IPTG) at 16° C. for 16 h. Harvested cells were re-suspended in lysis buffer: 50 mM Tris-HCl (pH 8.0), 200 mM NaCl, 0.5% Tween-20 and 2 mM dithiothreitol (DTT). After sonication on ice for 10 mins, the lysate was centrifuged at 25,000 rpm for 30 min at 4° C. Supernatant was allowed to bind to glutathione-sepharose beads (GE Healthcare) for 2 h at 4° C., washed 3 times with buffer (50 mM Tris-HCl (pH 8.0), 200 mM NaCl, 2 mM DTT), and eluted by cleaving GST moiety with PreScission™ Protease (GE Healthcare) at 4° C. overnight. Eluted protein was further purified by gel filtration using HiLoad 16/60 Superdex200 prep grade column (GE Healthcare) on an AKTA prime system (GE Healthcare) in gel filtration buffer (10 mM HEPES pH 7.5, 50 mM KCl and 2 mM DTT). Protein eluted as a sharp single peak and purity was judged by 4-15% SDS-PAGE (Bio-Rad). Purified protein was concentrated using an Amicon 10K filter unit (Merck Millipore) and stored at −80° C. until use. Similar expression and purification protocol was followed for OsD14 protein, except that OsD14 was eluted from Glutathione resins using 0.2 mM reduced Glutathione (Sigma) without cutting GST tag.
ShHTL7 tryptophans were excited at 280 nm and […] emission intensity was measured at 333 nm. ShHTL7 (10 μM) was incubated at various dilutions (0.2, 0.4, 0.8, 1.6, 3.12, 6.25, 12.5, 25 and 50 μM) of GR24 and MPs for 30 minutes at room temperature before measurement. Each concentration point was measured in triplicates. Emitted fluorescence was monitored using spectraMaxi3 (Molecular Devices) plate reader in 96-wells black plates. Changes in tryptophan fluorescence intensity occur due to conformational changes in protein when it is bound to ligand; differences in fluorescence intensity were recorded and analyzed. Data were normalized and dissociation coefficient (Kd) values were calculated by fitting to a binding saturation single-site model with GraphPad (PRISM 6).

[3] = molecular target: T2, OsD14 (Oryza sativa subsp. japonica, UniProt Q10QA5); assay: YLG (Yoshimulactone Green) competitive hydrolysis assay; format: biochemical, rice; conditions: with SE (n=3); read-out: IC50, competitive inhibition of OsD14 mediated YLG hydrolysis
T2 construct: made in house; host or cells: E. coli BL21 (DE3)
T2 sequence (Q10QA5 1-318): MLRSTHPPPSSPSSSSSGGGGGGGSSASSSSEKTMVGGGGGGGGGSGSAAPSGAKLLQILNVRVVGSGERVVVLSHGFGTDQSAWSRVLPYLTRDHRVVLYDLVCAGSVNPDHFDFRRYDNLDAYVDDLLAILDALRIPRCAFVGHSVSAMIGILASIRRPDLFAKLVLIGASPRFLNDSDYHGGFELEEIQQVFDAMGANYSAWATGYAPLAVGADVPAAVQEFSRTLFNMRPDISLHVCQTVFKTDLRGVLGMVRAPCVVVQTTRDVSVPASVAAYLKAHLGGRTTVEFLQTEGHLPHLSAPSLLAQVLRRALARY
Source text: as §2
In vitro YLG hydrolysis assays were performed as described by Tsuchiya et al., 2015. Hydrolysis assays were carried out using 0.15 μM of recombinant protein OsD14 in a reaction buffer (100 mM PBS buffer, pH 7.3) with 0.1% dimethylsulfoxide (DMSO) at a 300 μl volume on a 96-well black plate (Thermo). For competitive assays, (±) GR24 and (±) MPs at range between 0.03 to 10 μM (or 100 μM) were co-incubated with 0.3 μM of YLG and reacted at 30° C. incubator for 15 min. Fluorescent intensity was measured with excitation at 485 nm and detected at 535 nm. IC50 values were calculated online (http://www.ic50.tk/index.html). Later, values were converted to the existing conditions when treated by 1.0 μM of recombinant proteins.

[4] = system: rice leaf segments; assay: Dark-induced leaf senescence of rice leaf segments; format: in vivo, O. sativa, var. Shiokari
Procedure: One week old rice (O. sativa, var. Shiokari) seedlings were established as mentioned above. Uniform seedlings were transferred to 50 ml tubes containing half strength Hoaglands nutrient solution for 7 days and grown in an incubator under white fluorescent light (130-180 μM m^−2 s^−1) with 16 h:8 h (L/D) at 28° C. for one week. Leaf segments of 2 cm were cut from middle part of third leaves of rice plants. Each segment was put in a well (in 24-well plates) containing 2 ml of 2.5 mM MES buffer with 0.05% Tween-20, and incubated at 30° C. in the dark for 7 days. After application of MPs, color change, chlorophyll content, ion leakage and gene expression were monitored daily for 7 days.

[5] = system: rice d3 mutant; assay: Rice micro tillering bioassay, SL insensitive d3 mutant; format: in vivo; conditions: 2.5 μM, hydroponic culture
Procedure: as §1

[6] = molecular target: T1, ShHTL7; assay: In vitro hydrolysis assay with ShHTL7 (HPLC); format: biochemical; conditions: 10 μM substrate, 37° C.
[7] = system: Orobanche ramosa; conditions: tobacco field; cited from earlier work
[8] = system: P. ramosa; conditions: in vivo; cited from earlier work
[9] = system: S. hermonthica; conditions: in vivo; cited from earlier work
[10] = system: parasite seed; conditions: in vivo; cited from earlier work

In the case of CC1=C[C@H](O/C=C2/C(=O)O[C@@H]3c4ccccc4C[C@H]23)OC1=O [GR24, reference compound], the “Number of tillers per plant, d10 mutant” value [1] is reported as 1 tiller per plant, the Kd [2] is reported as 0.44 ± 0.21 µM and the IC50 [3] is reported as 5.68 ± 0.183 µM. For the same compound, the “Transcript levels of Senescence Associated Genes Osl20 and Osl295” value ([4]; after 5 days of treatment) was “striking increase in their transcripts”, the “Change in leaf color, time relative to control” value ([4]; dark, leaf segments) was “about two days earlier than the control” and the “Change in leaf color, day observed” value ([4]; dark, leaf segments monitored 7 days) was “already on the third day after treatment”. The “Ion leakage compared to the control” value ([4]; first five days) was “did not detect a difference”, the “Ion leakage compared to the control” value ([4]; sixth and seventh day) was “striking increase” and the Chlorophyll content ([4]; third day) was “clear reduction”. The “High-tillering phenotype of d3 mutant (tillers per plant)” value [5] was “neither MPs nor GR24 could restore the high-tillering phenotype” and the “Hydrolysis rate by ShHTL7” value [6] was “followed by MP7, GR24”.
For COC(=O)/C(=C/O[C@H]1C=C(C)C(=O)O1)N1C(=O)c2ccccc2C1=O [Nijmegen-1], the “Result of suicidal germination field trial” value [7] is given as “very promising results”, the “Induction of seed germination in P. ramosa” value [8] is given as “potent inducer” and the “Activity in S. hermonthica seed germination” value [9] is given as “weak germination response”. For the same compound, the “EC50 relative to GR24, orders of magnitude higher” value [9] was 3 orders of magnitude.
In the case of CC1=CC(Oc2ccc(Br)cc2)OC1=O (stereo not shown) [4-Br debranone], the “Activity in inducing parasite seed germination” value [10] is listed as “moderate activity in inducing seed germination”.
